According to PubChem BioAssay AID1963960 (Molecular Pharmacology Branch, DTP, NCI, 2024):

System: MDA-MB-468 spheroids with HUVEC/MSC, viability
Experiment: Anticancer human tumor MDA-MB-468 cell line growth inhibition [PI3K];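 further: spheroids exposed to agents for seven days before readout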;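 on viability, T/C: 100% = DMSO vehicle control viability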
Conditions: for IC50: curve of first compound; for viability, T/C: stronger effect = lower value
How it was run: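 Spheroid viability read-out. Co-cultures contained the tumor line plus HUVEC and human MSCs. Each agent was paired with a PI3K inhibitor (inavolisib, alpelisib, duvelisib, copanlisib) across half-log dilutions starting at clinical Cmax, or at 10 microM when Cmax was unknown.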

CC1(C)CCC(CN2CCN(c3ccc(C(=O)NS(=O)(=O)c4ccc(NCC5CCOCC5)c([N+](=O)[O-])c4)c(Oc4cnc5[nH]ccc5c4)c3)CC2)=C(c2ccc(Cl)cc2)C1 + CC(Nc1ncnc2nc[nH]c12)c1cc2cccc(Cl)c2c(=O)n1-c1ccccc1
IC50 (second compound 0.0316 µM): 4.8 µM | IC50 (second compound 0.1 µM): 4.53 µM | IC50 (second compound 0.316 µM): 4.3 µM | IC50 (second compound 1 µM): 3.73 µM | IC50 (second compound 3.16 µM): 0.0316 µM | IC50 (second compound 10 µM): < 0.0316 µM | viability, T/C (second compound 0.0316 µM, first compound 0.0316 µM): 90.5% | viability, T/C (second compound 0.0316 µM, first compound 0.1 µM): 84.6% | viability, T/C (second compound 0.0316 µM, first compound 0.316 µM): 87% | viability, T/C (second compound 0.0316 µM, first compound 1 µM): 87.4% | viability, T/C (second compound 0.0316 µM, first compound 3.16 µM): 69.9% | viability, T/C (second compound 0.0316 µM, first compound 10 µM): 15.2% | viability, T/C (second compound 0.1 µM, first compound 0.0316 µM): 83.8% | viability, T/C (second compound 0.1 µM, first compound 0.1 µM): 82.2% | viability, T/C (second compound 0.1 µM, first compound 0.316 µM): 79.6% | viability, T/C (second compound 0.1 µM, first compound 1 µM): 76.1% | viability, T/C (second compound 0.1 µM, first compound 3.16 µM): 65.1% | viability, T/C (second compound 0.1 µM, first compound 10 µM): 18.3% | viability, T/C (second compound 0.316 µM, first compound 0.0316 µM): 76.5% | viability, T/C (second compound 0.316 µM, first compound 0.1 µM): 68.5% | viability, T/C (second compound 0.316 µM, first compound 0.316 µM): 78% | viability, T/C (second compound 0.316 µM, first compound 1 µM): 68.8% | viability, T/C (second compound 0.316 µM, first compound 3.16 µM): 62.6% | viability, T/C (second compound 0.316 µM, first compound 10 µM): 17.2% | viability, T/C (second compound 1 µM, first compound 0.0316 µM): 58.9% | viability, T/C (second compound 1 µM, first compound 0.1 µM): 65% | viability, T/C (second compound 1 µM, first compound 0.316 µM): 69.9% | viability, T/C (second compound 1 µM, first compound 1 µM): 72.2% | viability, T/C (second compound 1 µM, first compound 3.16 µM): 55.8% | viability, T/C (second compound 1 µM, first compound 10 µM): 15.5% | viability, T/C (second compound 3.16 µM, first compound 0.0316 µM): 50% | viability, T/C (second compound 3.16 µM, first compound 0.1 µM): 46.9% | viability, T/C (second compound 3.16 µM, first compound 0.316 µM): 47.2% | viability, T/C (second compound 3.16 µM, first compound 1 µM): 49.4% | viability, T/C (second compound 3.16 µM, first compound 3.16 µM): 50.5% | viability, T/C (second compound 3.16 µM, first compound 10 µM): 13.8% | viability, T/C (second compound 10 µM, first compound 0.0316 µM): 38.4% | viability, T/C (second compound 10 µM, first compound 0.1 µM): 30.9% | viability, T/C (second compound 10 µM, first compound 0.316 µM): 39% | viability, T/C (second compound 10 µM, first compound 1 µM): 42.5% | viability, T/C (second compound 10 µM, first compound 3.16 µM): 32.3% | viability, T/C (second compound 10 µM, first compound 10 µM): 15.4%
